Columns and labels:
Assay type in all cases: functional
Spodoptera littoralis [1] = test: Antifeedant activity against Spodoptera littoralis fifth-instar larvae reared on compound exposed lettuce disks assessed as feeding ratio when 50% of control leaf disk area consumed at 10 ug/cm2 measured for 4 to 5 hr by leaf disk choice method
Spodoptera littoralis [2] = test: Antifeedant activity against Spodoptera littoralis fifth-instar larvae reared on compound exposed lettuce disks assessed as feeding ratio when 50% of control leaf disk area consumed at 0.1 ug/cm2 measured for 4 to 5 hr by leaf disk choice method
Spodoptera littoralis [3] = test: Antifeedant activity against Spodoptera littoralis fifth-instar larvae reared on compound exposed lettuce disks assessed as feeding ratio when 50% of control leaf disk area consumed at 1 ug/cm2 measured for 4 to 5 hr by leaf disk choice method
Spodoptera littoralis [4] = test: Antifeedant activity against Spodoptera littoralis fifth-instar larvae reared on compound exposed lettuce disks assessed as leaf disk protection at 10 to 1 ug/cm2 measured for 4 to 5 hr by leaf disk choice method

CC(=O)OC[C@]12[C@H](OC(=O)c3ccccc3)[C@H](OC(C)=O)[C@@H]3[C@@H](OC(C)=O)[C@]1(OC3(C)C)[C@@](C)(O)C[C@H](OC(C)=O)[C@@H]2OC(=O)c1ccccc1
FR50 (Spodoptera littoralis [1]): 0.35

CCC(C)C(=O)O[C@H]1[C@H](O)C[C@@H]2[C@@](C)([C@@H]3C[C@H]4C=CO[C@H]4O3)[C@H](C)C[C@H](OC(C)=O)[C@@]2(COC(C)=O)[C@@]12CO2 (stereo partly drawn) [AJUGAPITIN]
FR50 (Spodoptera littoralis [2]): 0.41

CC(=O)OC[C@@]12[C@@H](OC(=O)/C=C/c3ccccc3)CC[C@](C)(O)[C@]13OC(C)(C)[C@H]([C@@H](OC(C)=O)[C@H]2OC(=O)c1ccccc1)[C@H]3OC(C)=O
FR50 (Spodoptera littoralis [1]): 0.27

CC(=O)OC[C@@]12[C@@H](OC(=O)c3ccccc3)CC[C@](C)(O)[C@]13OC(C)(C)[C@H]([C@@H](OC(C)=O)[C@H]2OC(=O)c1ccccc1)[C@H]3OC(C)=O
FR50 (Spodoptera littoralis [1]): 0.24 | FR50 (Spodoptera littoralis [3]): 0.58

CC(=O)O[C@H]1[C@H](OC(=O)c2ccccc2)[C@@]2(C)[C@@H](OC(=O)c3ccccc3)C[C@@H]3[C@@H](OC(C)=O)[C@]2(OC3(C)C)[C@@](C)(O)[C@H]1O [2BETA,3BETA,4BETA,TRIHYDROXYCELARBICO]
FR50 (Spodoptera littoralis [1]): 0.24 | FR50 (Spodoptera littoralis [3]): 0.44

CC(=O)O[C@H]1C[C@@H](C)[C@]23OC(C)(C)[C@H](C[C@H](OC(=O)c4ccccc4)[C@]2(CO)[C@H]1OC(C)=O)[C@H]3OC(C)=O
FR50 (Spodoptera littoralis [1]): 0.36

TRIPHENYLSTANNYL ACETATE
FR50 (Spodoptera littoralis [1]): 0.37

CC(=O)OC[C@]12[C@@H](OC(=O)c3ccccc3)C[C@@H]3[C@@H](OC(C)=O)[C@]1(OC3(C)C)[C@H](C)C[C@H](OC(C)=O)[C@@H]2OC(C)=O
FR50 (Spodoptera littoralis [1]): 0.19 | FR50 (Spodoptera littoralis [3]): 0.54

CC(=O)O[C@H]1[C@@H]2C[C@@]3(OC2(C)C)[C@](C)([C@H]1OC(=O)c1ccccc1)[C@@H](OC(=O)c1ccccc1)[C@H](OC(C)=O)[C@H](OC(C)=O)[C@]3(C)O [2BETA,3BETA,4BETA-TRIHYDROXYCELAPANOL]
FR50 (Spodoptera littoralis [1]): 0.38

CC(=O)O[C@@H]1[C@@H]2[C@@H](OC(C)=O)[C@]3(OC2(C)C)[C@H](C)C[C@H](OC(C)=O)[C@H](OC(C)=O)[C@@]3(CO)[C@@H]1OC(=O)c1ccccc1
FR50 (Spodoptera littoralis [1]): 0.16 | FR50 (Spodoptera littoralis [3]): 0.65

CC(=O)O[C@H]1C[C@@H]2[C@@H](OC(=O)c3cccnc3)[C@@]3(OC2(C)C)[C@@]1(C)[C@@H](OC(=O)c1ccccc1)CC[C@]3(C)O
FR50 (Spodoptera littoralis [1]): 0.68

CCC(C)C(=O)O[C@H]1[C@H](OC(C)=O)C[C@@H]2[C@@](C)([C@@H]3C[C@H]4CCO[C@H]4O3)[C@H](C)C[C@H](OC(C)=O)[C@@]2(COC(C)=O)[C@@]12CO2 (stereo partly drawn) [2-acetyl-14,15-dihydroajugapitin]
FR50 (Spodoptera littoralis [2]): 0.62

CC(=O)O[C@H]1[C@@H]2[C@@H](OC(=O)c3cccnc3)[C@@]3(OC2(C)C)[C@@](C)([C@@H](OC(=O)c2ccccc2)CC[C@]3(C)O)[C@@H]1OC(C)=O
Activity (Spodoptera littoralis [4]): 100% | FR50 (Spodoptera littoralis [1]): 0.04 | FR50 (Spodoptera littoralis [3]): 0.15 | FR50 (Spodoptera littoralis [2]): 0.45

CC(=O)O[C@@H]1[C@@H](O)[C@@H]2[C@@H](OC(=O)c3cccnc3)[C@@]3(OC2(C)C)[C@@]1(C)[C@@H](OC(=O)c1ccccc1)CC[C@]3(C)O
FR50 (Spodoptera littoralis [1]): 0.74

CC[C@H](C)C(=O)O[C@H]1[C@H](O)C[C@@H]2[C@@](C)([C@@H]3C[C@H]4CCO[C@H]4O3)[C@H](C)C[C@H](OC(C)=O)[C@@]2(COC(C)=O)[C@@]12CO2 [14,15-DIHYDROAJUGAPITIN]
FR50 (Spodoptera littoralis [2]): 0.32

CC(=O)O[C@H]1[C@@H]2[C@@H](OC(C)=O)[C@@]3(OC2(C)C)[C@@](C)([C@@H](OC(=O)c2ccccc2)CC[C@]3(C)O)[C@@H]1OC(C)=O
FR50 (Spodoptera littoralis [1]): 0.12 | FR50 (Spodoptera littoralis [3]): 0.4

CC(=O)OC[C@]12[C@@H](OC(=O)c3ccccc3)[C@H](OC(C)=O)[C@@H]3[C@@H](OC(C)=O)[C@]1(OC3(C)C)[C@H](C)C[C@H](OC(C)=O)[C@@H]2OC(C)=O
FR50 (Spodoptera littoralis [1]): 0.13 | FR50 (Spodoptera littoralis [3]): 0.71

CC(=O)O[C@@H]1[C@@H]2[C@@H](OC(C)=O)[C@]3(OC2(C)C)[C@H](C)C[C@H](OC(C)=O)[C@H](OC(C)=O)[C@@]3(CO)[C@H]1OC(=O)c1ccccc1
FR50 (Spodoptera littoralis [1]): 0.07 | FR50 (Spodoptera littoralis [3]): 0.53

From ChEMBL document CHEMBL3045149, “Antifeedant activity of dihydro--agarofuran sesquiterpenes from Celastraceae against Spodoptera littoralis” (1992)
